Data: US20200390729A1, “OPHTHALMIC TOPICAL COMPOSITION COMPRISING DOBESILIC ACID FOR TREATING DISEASES OF THE POSTERIOR SEGMENT OF THE EYE” (LABORATORIOS SALVAT, S.A., priority 2017, published 2020)
Like-named read-outs stand apart in the source and are kept apart here.

Legend:
[1] = Ocular distribution of etamsylate following topical ocular single dose in rats; format: in vivo, Sprague Dawley (SD) rat; conditions: Sprague-Dawley, rat
Experimental: Bioanalysis of CDO was performed depending on the type of matrix. In the case of plasma, proteins were precipitated using methanol. In the case of tissues, samples were grinded in a Mini Bead Beater using zirconium beads and methanol/water (1:1) (v/v) as solvent. After centrifugation, samples were analyzed by UPLC-MS/MS.
Chromatographic separation was carried out using an Acquity CSH Fluoro Phenyl column (1.7 μm, 50×2.1 mm). Mobile phase consisted of a gradient using 0.1% formic acid in water and acetonitrile from 5% to 45% in 4.5 min at a flow rate of 0.6 ml/min.
With regard to the mass spectrometric detection, the electrospray ionization source worked to record negative ions. Multiple Reaction Monitoring (MRM) acquisition mode of the deprotonated molecular ions was performed. The transition monitored for CDO was m/z 189.0→80.1 with a cone voltage of 45 V and collision energy of 25 eV.
At 15, 60 and 180 minutes post-administration, animals were euthanized and ocular tissues including retina, and optic nerve were collected.
As described in Example 2.

TNF-α mRNA = assay: Anti-inflammatory activity: relative TNF-α mRNA in retinas, streptozotocin diabetic retinopathy model; format: in vivo, SD male rats; conditions: diabetic rats, CDO 10 mg/ml topical 10 μl/eye TID 28 days
Experimental: Diabetes was induced in SD male rats by single intraperitoneal injection of streptozotocin (STZ) at 60 mg/kg body weight in citrate buffer (pH 4.5). Seven days after STZ administration, blood glucose was measured and the level of 250 mg/dl was considered the threshold value to consider diabetes induction. Ophthalmic treatment with CDO at 10 mg/ml (topical instillation of 10 μl/eye) was initiated once hyperglycemia was confirmed and continued for 28 days three times a day (TID). Rats were randomly divided in 3 groups: I. Control (non-diabetic), II. Diabetic rats with no treatment and III. Diabetic rats with CDO at 10 mg/ml. […]
RNA was isolated from each retina by using the commercial kit SV Total RNA Isolation System (Promega) and stored at −80° C. until use. Relative mRNA levels were quantified using a MX3000 (Stratagene) quantitative PCR system. […]
The qPCR system detects the fluorescence emitted by SYBR, its increase corresponds to exponential increase of the PCR product. The software calculates the threshold cycle (Ct), in which the fluorescence exceeds the background signal. Relative changes in gene expression were calculated using the ΔCt method. […] Relative expression of mRNA in the test samples were determined as fold increase compared with the control sample (non-diabetic).

[2] = optic nerve, 0.126 mg, read-out: CDO μg/g tissue Optic nerve
[3] = optic nerve, 1.26 mg, read-out: CDO μg/g tissue Optic nerve
[4] = retina, 0.126 mg, read-out: CDO μg/g tissue Retina
[5] = retina, 1.26 mg, read-out: CDO μg/g tissue Retina

Compound: O=S(=O)(O)c1cc(O)ccc1O [CDO, Calcium dobesilate monohydrate]
- concentration at 0.25 h [1, 2]: 36.5 µg/g
- concentration at 1 h [1, 2]: 8.13 µg/g
- concentration at 3 h [1, 2]: 2.32 µg/g
- concentration at 0.25 h [1, 3]: 25.2 µg/g
- concentration at 1 h [1, 3]: 15.8 µg/g
- concentration at 3 h [1, 3]: 2.67 µg/g
- concentration at 0.25 h [1, 4]: 4.39 µg/g
- concentration at 1 h [1, 4]: 3.48 µg/g
- concentration at 3 h [1, 4]: 0.27 µg/g
- concentration at 0.25 h [1, 5]: 4.05 µg/g
- concentration at 1 h [1, 5]: 2.42 µg/g
- concentration at 3 h [1, 5]: 1.56 µg/g
- TNF-α mRNA expression of treated group vs control group (non-diabetic) (TNF-α mRNA): slightly lower than the control group
